Here are results for 43 compounds from patent US4557871A, “Novel styrene derivatives of the general formula” (Taisho Pharmaceutical Co., Ltd., priority 1983, dated 1985).

Where two headings read alike, the source gives them in different places.

Assay [1] concerns edema in left hind paw. The experiment in a line: Duration of inhibition of carrageenin-induced hind paw edema, test compound orally 1, 24 or 48 hours before inducing the edema. Format: in vivo, Male Wistar rats. To be noted: Rattus norvegicus; for inhibition at 3 mg/kg: po; for inhibition at 1.5 mg/kg: dose 1.5 mg/kg oral; for inhibition at 6 mg/kg: dose 6 mg/kg oral. On the procedure:
Anti-inflammatory activity was evaluated by the Winter's method [Journal of Pharmacology and Experimental Therapeutics, volume 141, page 369(1963)]. […] Volumes of the hind paws were determined with a volume meter 3 hours after the injection of carrageenin. Indomethacin (Control 1) and 4-vinylphenylacetic acid (Control 2) were used as controls.
Following a procedure similar to that of Test example 1, the test compounds were administered orally to the rats 1, 24 or 48 hours before inducing the edema, and there was obtained a result shown in Table 2.

Assay [2] has as its system edema in left hind paw. The experiment in a line: Carrageenin-induced hind paw edema in rats, test compound orally 1 hour before (Winter's method), anti-inflammatory activity. Type of assay: in vivo, Male Wistar rats. To be noted: paw volume 3 hours after carrageenin; for inhibition at 6 mg/kg: Rattus norvegicus, po. As to the method:
Anti-inflammatory activity was evaluated by the Winter's method [Journal of Pharmacology and Experimental Therapeutics, volume 141, page 369(1963)]. Male Wistar rats (group of 6 animals) were administered orally the test compounds (dose: 6 mg/kg) one hour before inducing the edema in left hind paw with 0.1 ml of a 1% carrageenin-saline suspension. Volumes of the hind paws were determined with a volume meter 3 hours after the injection of carrageenin. Indomethacin (Control 1) and 4-vinylphenylacetic acid (Control 2) were used as controls.

Where [3] appears, read: 6 mg/kg oral, one hour before carrageenin.
Setting [4] is: read-out: Inhibition of edema, 6 mg/kg oral, one hour before carrageenin.
The mark [5] stands for this setting: 1 hr before inducing edema, read-out: Inhibition of edema, 1 hr.
[6] abbreviates: 24 hrs before inducing edema, read-out: Inhibition of edema, 24 hrs.
[7] abbreviates: 48 hrs before inducing edema, read-out: Inhibition of edema, 48 hrs.
The mark [8] stands for this setting: 6 mg/kg oral, one hour before carrageenin, read-out: Inhibition of edema.

Consider `COc1ccc2c(c1)c(CC(=O)O)c(C)n2C(=O)c1ccc(Cl)cc1` [Control 1, Indomethacin], for which the inhibition at 3 mg/kg worked out at 30.4% in the assay with edema in left hind paw [1] (read-out: Inhibition of edema, 1 hr); 8.1% with edema in left hind paw [1] (read-out: Inhibition of edema, 24 hrs); 0.8% in the assay on edema in left hind paw [1] (read-out: Inhibition of edema, 48 hrs). Besides, the Inhibition of edema in the assay with edema in left hind paw [2] (setting [3]) is on record as 59.3%. The inhibition at 6 mg/kg in the assay on edema in left hind paw [2] (setting [4]) was 68.2%.
`CN1C(C(=O)Nc2ccccn2)=C(O)c2ccccc2S1(=O)=O` [Control 3, piroxicam]: the inhibition at 1.5 mg/kg is 48.6% with edema in left hind paw [1] (setting [5]), 13.3% in the assay on edema in left hind paw [1] (setting [6]) and 2.1% with edema in left hind paw [1] (setting [7]).
Regarding `CC(C)=Cc1ccc(C(C)C(=O)O)cc1` (stereo not drawn) [Control 4, 2-[4-(2,2-dimethylvinyl)phenyl]propionic acid], the inhibition at 6 mg/kg was 59.3% in the assay on edema in left hind paw [1] (setting [5]), -8.5% with edema in left hind paw [1] (setting [6]) and 3.7% in the assay on edema in left hind paw [1] (setting [7]).
`O=C(O)Cc1ccc(C=C(Cl)Cl)cc1` [ST-2, 4-(2,2-Dichlorovinyl)phenylacetic acid]: the inhibition at 6 mg/kg with edema in left hind paw [2] (setting [8]) was 63.9%.
Consider `O=C(O)Cc1cccc(C=C(Cl)Cl)c1` [ST-3, 3-(2,2-Dichlorovinyl)phenylacetic acid], for which, in the assay on edema in left hind paw [2] (setting [8]), the inhibition at 6 mg/kg amounted to 31.9%.
Consider `CC(C(=O)O)c1cccc(C=C(Cl)Cl)c1` (stereo not drawn) [ST-4, 2-[3-(2,2-Dichlorovinyl)phenyl]propionic acid], for which the inhibition at 6 mg/kg in the assay with edema in left hind paw [2] (setting [8]) came to 32%.
On the same count and under the same terms, then `CCOC(=O)C(C)c1ccc(C=C(Cl)Cl)cc1` (stereo not drawn) [ST-5, ethyl 2-[4-(2,2-dichlorovinyl)phenyl]propionate], with 46.5%; and `CC(C(=O)O)c1ccc(C=C(F)F)cc1` (stereo not drawn) [ST-7, 2-[4-(2,2-difluorovinyl)phenyl]propionic acid], with 48.4%; and `CC(C(=O)O)c1ccc(C=C(Cl)Cl)c(F)c1` (stereo not drawn) [ST-8, 2-[4-(2,2-dichlorovinyl)-3-fluorophenyl]propionic acid], with 64.8%.
On the same count and under the same terms, the result for `CC(C(=O)O)c1ccc(C=C(Cl)Cl)c(Cl)c1` (stereo not drawn) [ST-9, 2-[3-Chloro-4-(2,2-dichlorovinyl)phenyl]propionic acid] reads 58%.
On the same count and under the same terms, then `CC(CO)c1ccc(C=C(Cl)Cl)cc1` (stereo not drawn) [ST-10, 2-[4-(2,2-dichlorovinyl)phenyl]propanol], with 62.4%; and `CC(C(N)=O)c1ccc(C=C(Cl)Cl)cc1` (stereo not drawn) [ST-11, 2-[4-(2,2-dichlorovinyl)phenyl]propionamide], with 26.5%.
Regarding `Cc1ccc(NC(=O)C(C)c2ccc(C=C(Cl)Cl)cc2)cc1` (stereo not drawn) [ST-14, N-(4-Methylphenyl)-2-[4-(2,2-dichlorovinyl)phenyl]propionamide], the inhibition at 6 mg/kg in the assay on edema in left hind paw [2] (setting [8]) was 33.6%.
Turning to `CC(C(=O)Nc1ccc(Cl)cc1)c1ccc(C=C(Cl)Cl)cc1` (stereo not drawn) [ST-16, N-(4-Chlorophenyl)-2-[4-(2,2-dichlorovinyl)phenyl]propionamide], the inhibition at 6 mg/kg with edema in left hind paw [2] (setting [8]) amounted to 43.1%.
With `CC(C(=O)Nc1ccc(F)cc1)c1ccc(C=C(Cl)Cl)cc1` (stereo not drawn) [ST-17, N-(4-Fluorophenyl)-2-[4-(2,2-dichlorovinyl)phenyl]propionamide], the inhibition at 6 mg/kg with edema in left hind paw [2] (setting [8]) came to 40%.
The same measure, in the same setting: then `CC(C(=O)Nc1ccc(C(=O)O)cc1)c1ccc(C=C(Cl)Cl)cc1` (stereo not drawn) [ST-20, 4-{2-[4-(2,2-Dichlorovinyl)phenyl]propionylamino}benzoic acid], with 47%; and `CC(C(=O)Nc1ccccn1)c1ccc(C=C(Cl)Cl)cc1` (stereo not drawn) [ST-22, N-(2-Pyridyl)-2-[4-(2,2-dichlorovinyl)phenyl]propionamide], with 35.5%.
Still for that read-out and setting: then `CCOC(=O)CNC(=O)C(C)c1ccc(C=C(Cl)Cl)cc1` (stereo not drawn) [ST-23, N-{2-[4-(2,2-Dichlorovinyl)phenyl]propionyl}glycine ethyl ester], with 35.5%; and `CC(C(=O)NCC(=O)O)c1ccc(C=C(Cl)Cl)cc1` (stereo not drawn) [ST-24, N-{2-[4-(2,2-Dichlorovinyl)phenyl]propionyl}glycine], with 30%.
With `CCNC(=O)C(C)c1ccc(C=C(Cl)Cl)cc1` (stereo not drawn) [ST-25, N-Ethyl-2-[4-(2,2-dichlorovinyl)phenyl]propionamide], the inhibition at 6 mg/kg in the assay with edema in left hind paw [2] (setting [8]) stood at 37.1%.
Still for that read-out and setting: then `CC(C(=O)NO)c1ccc(C=C(Cl)Cl)cc1` (stereo not drawn) [ST-34, 2-[4-(2,2-dichlorovinyl)phenyl]propionylhydroxamic acid], with 32.5%.
As for `CC(C(=O)O)c1ccc(C=C(Cl)Cl)cc1` (stereo not drawn) [ST-35, sodium 2-[4-(2,2-dichlorovinyl)phenyl]propionate], the inhibition at 6 mg/kg in the assay with edema in left hind paw [2] (setting [4]) was determined as 46%.
With `CC(C(=O)O)c1ccc(C=C(Cl)Cl)cc1` (stereo not drawn) [ST-36, calcium 2-[4-(2,2-dichlorovinyl)phenyl]propionate], in the assay on edema in left hind paw [2] (setting [3]), the Inhibition of edema is 43.0%.
Take `CC(C(=O)O)c1ccc(C=C(Cl)Cl)cc1` (stereo not drawn) [ST-37, Aluminum 2-[4-(2,2-dichlorovinyl)phenyl]propionate]: the Inhibition of edema in the assay on edema in left hind paw [2] (setting [3]) is given as 63.1%.
On the same count and under the same terms, then `CC(C(=O)O)c1ccc(C=C(Cl)Cl)cc1` (stereo not drawn) [ST-38, morpholinium 2-[4-(2,2-dichlorovinyl)phenyl]propionate], with 35.6%.
The same measure, in the same setting: then `CC(C(=O)O)c1ccc(C=C(Cl)Cl)cc1` (stereo not drawn) [ST-39, 2-Pyridylammonium 2-[4-(2,2-dichlorovinyl)phenyl]propionate], with 51.4%.
With `CC(C)=CCOC(=O)C(C)c1ccc(C=C(Cl)Cl)cc1` (stereo not drawn) [ST-41, prenyl 2-[4-(2,2-dichlorovinyl)phenyl]propionate], in the assay on edema in left hind paw [2] (setting [8]), the inhibition at 6 mg/kg was 48.8%.
Still for that read-out and setting: the result for `CC(C)CCOC(=O)C(C)c1ccc(C=C(Cl)Cl)cc1` (stereo not drawn) [ST-42, Isopentyl 2-[4-(2,2-dichlorovinyl)phenyl]propionate] reads 60.4%.
Regarding `COCOC(=O)C(C)c1ccc(C=C(Cl)Cl)cc1` (stereo not drawn) [ST-43, Methoxymethyl 2-[4-(2,2-dichlorovinyl)phenyl]propionate], the inhibition at 6 mg/kg in the assay with edema in left hind paw [2] (setting [8]) is 37.1%.
As for `CC(C(=O)OCc1ccccn1)c1ccc(C=C(Cl)Cl)cc1` (stereo not drawn) [ST-44, 2-Pyridylmethyl 2-[4-(2,2-dichlorovinyl)phenyl]propionate], the inhibition at 6 mg/kg with edema in left hind paw [2] (setting [8]) turned out to be 59.8%.
In the case of `CC(=O)OC(C)OC(=O)C(C)c1ccc(C=C(Cl)Cl)cc1` (stereo not drawn) [ST-45, 1-(Acetoxy)ethyl 2-[4-(2,2-dichlorovinyl)phenyl]propionate], the inhibition at 6 mg/kg with edema in left hind paw [2] (setting [8]) turned out to be 44.8%.
Still for that read-out and setting: the result for `CCC(=O)OCOC(=O)C(C)c1ccc(C=C(Cl)Cl)cc1` (stereo not drawn) [ST-46, Propionyloxymethyl 2-[4-(2,2-dichlorovinyl)phenyl]propionate] reads 32.2%.
Take `CCC(=O)OC(C)OC(=O)C(C)c1ccc(C=C(Cl)Cl)cc1` (stereo not drawn) [ST-47, 1-(Propionyloxy)ethyl 2-[4-(2,2-dichlorovinyl)phenyl]propionate]: the inhibition at 6 mg/kg in the assay with edema in left hind paw [2] (setting [8]) turned out to be 49.9%.
In the case of `CCCCCCCCCCCCCCCC(=O)OC(C)OC(=O)C(C)c1ccc(C=C(Cl)Cl)cc1` (stereo not drawn) [ST-48, 1-(Palmitoyloxy)ethyl 2-[4-(2,2-dichlorovinyl)phenyl]propionate], in the assay with edema in left hind paw [2] (setting [8]), the inhibition at 6 mg/kg amounted to 32.7%.
As for `CC(C(=O)OC1OC(=O)c2ccccc21)c1ccc(C=C(Cl)Cl)cc1` (stereo not drawn) [ST-49, 2-Phthalidyl 2-[4-(2,2-dichlorovinyl)phenyl]propionate], the inhibition at 6 mg/kg in the assay on edema in left hind paw [2] (setting [8]) worked out at 53.3%.
On the same count and under the same terms, then `CC(C)=CCOC(=O)C(C)c1ccc(C=C(Cl)Cl)c(F)c1` (stereo not drawn) [ST-50, Prenyl 2-[4-(2,2-dichlorovinyl)-3-fluorophenyl]propionate], with 61.4%.
The same measure, in the same setting: then `CCOC(=O)C(C)c1ccc(C=C(Cl)Cl)c(F)c1` (stereo not drawn) [ST-55, ethyl 2-[4-(2,2-dichlorovinyl)-3-fluorophenyl]propionate], with 38.2%.
As for `CCOC(=O)C(C)c1ccc(C=C(Cl)Cl)c(Cl)c1` (stereo not drawn) [ST-56, Ethyl 2-[3-chloro-4-(2,2-dichlorovinyl)phenyl]propionate], the inhibition at 6 mg/kg in the assay on edema in left hind paw [2] (setting [8]) was determined as 39.4%.
Same read-out and setting: the result for `CC(C)=CCC/C(C)=C/COC(=O)C(C)c1ccc(C=C(Cl)Cl)cc1` (stereo not drawn) [ST-58, geranyl 2-[4-(2,2-dichlorovinyl)phenyl]propionate] reads 39%; that for `CC(C(=O)OCCO)c1ccc(C=C(Cl)Cl)cc1` (stereo not drawn) [ST-59, 2-Hydroxyethyl 2-[4-(2,2-dichlorovinyl)phenyl]propionate], 57.3%; that for `CC(C)=CCCC(C)=CCCC(C)=CCOC(=O)C(C)c1ccc(C=C(Cl)Cl)cc1` (stereo not drawn) [ST-60, Farnesyl 2-[4-(2,2-dichlorovinyl)phenyl]propionate], 50.8%.
On to `CC(C(=O)OC1CCCCC1)c1ccc(C=C(Cl)Cl)cc1` (stereo not drawn) [ST-61, Cyclohexyl 2-[4-(2,2-dichlorovinyl)phenyl]propionate], for which the inhibition at 6 mg/kg in the assay with edema in left hind paw [2] (setting [8]) was determined as 43.7%.
Same read-out and setting: then `CC(C)=CCC/C(C)=C/COC(=O)C(C)c1ccc(C=C(Cl)Cl)c(Cl)c1` (stereo not drawn) [ST-62, Geranyl 2-[3-chloro-4-(2,2-dichlorovinyl)phenyl]propionate], with 43.2%.
